# According to ChEMBL document CHEMBL5352431 (Eur J Med Chem, 2022):
# “And” between values parts separate entries of the source, which are not always exact repeats. Identical values can stand only once.
# Legend:
# [1] = biological target: T1, Melatonin receptor type 1A (Homo sapiens, UniProt P48039); experiment: Displacement of 2-[125I]iodoMLT from human MT1 receptor stably expressed in CHO cells incubated for 60 mins by Cheng-Prusoff equation analysis; assay type: cell-based
# [2] = biological target: T1, Melatonin receptor type 1A; experiment: Displacement of 2-[125I]iodoMLT from human MT1 receptor expressed in mouse NIH3T3 cells incubated for 90 mins by Cheng-Prusoff equation analysis; assay type: cell-based
# [3] = biological target: T2, Melatonin receptor type 1B (Homo sapiens, UniProt P49286); experiment: Displacement of 2-[125I]iodoMLT from human MT2 receptor expressed in mouse NIH3T3 cells incubated for 90 mins by Cheng-Prusoff equation analysis; assay type: cell-based
# T2 sequence (P49286 whole entry): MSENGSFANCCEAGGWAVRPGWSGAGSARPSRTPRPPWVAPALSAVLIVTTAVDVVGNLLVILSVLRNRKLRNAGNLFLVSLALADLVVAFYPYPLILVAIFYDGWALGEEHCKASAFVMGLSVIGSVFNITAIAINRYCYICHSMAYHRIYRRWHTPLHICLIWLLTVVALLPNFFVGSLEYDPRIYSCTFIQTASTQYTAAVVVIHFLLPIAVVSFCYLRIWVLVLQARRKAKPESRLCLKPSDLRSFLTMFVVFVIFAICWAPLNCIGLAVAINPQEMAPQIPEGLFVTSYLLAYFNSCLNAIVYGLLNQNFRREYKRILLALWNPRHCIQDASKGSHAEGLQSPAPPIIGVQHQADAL
# [4] = biological target: T1, Melatonin receptor type 1A; experiment: Displacement of 2-[125I]iodoMLT from recombinant human MT1 receptor expressed in African green monkey COS-7 cells incubated for 1.5 hrs by Cheng-Prusoff equation analysis; assay type: cell-based
# [5] = biological target: T1, Melatonin receptor type 1A; experiment: Displacement of 2-[125I]iodoMLT from human MT1 receptor stably expressed in CHO cells by Cheng-Prusoff equation analysis; assay type: cell-based
# [6] = biological target: T2, Melatonin receptor type 1B; experiment: Displacement of 2-[125I]iodoMLT from human MT2 receptor stably expressed in CHO cells by Cheng-Prusoff equation analysis; assay type: cell-based
# [7] = biological target: T1, Melatonin receptor type 1A; experiment: Binding affinity to MT1 receptor (unknown origin) assessed as inhibition constant
# [8] = biological target: T2, Melatonin receptor type 1B; experiment: Binding affinity to MT2 receptor (unknown origin) assessed as inhibition constant
# T1 sequence (P48039 whole entry): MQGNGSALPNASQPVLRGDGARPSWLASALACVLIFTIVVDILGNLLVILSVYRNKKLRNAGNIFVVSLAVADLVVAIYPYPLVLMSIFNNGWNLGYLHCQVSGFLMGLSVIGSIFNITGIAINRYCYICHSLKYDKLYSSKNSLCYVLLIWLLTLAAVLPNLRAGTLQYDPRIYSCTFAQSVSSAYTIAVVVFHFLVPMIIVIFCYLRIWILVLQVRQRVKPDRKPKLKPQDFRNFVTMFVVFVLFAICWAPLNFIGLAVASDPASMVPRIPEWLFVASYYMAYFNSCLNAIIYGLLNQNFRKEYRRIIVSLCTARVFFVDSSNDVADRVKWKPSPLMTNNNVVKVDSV
Compound,Ki [2],Ki [3],also measured
COc1cccc(N(CCNC(C)=O)c2cccc(CO)c2)c1,–,–,Ki [1]: > 100 nM
COc1ccc2[nH]c(Cc3ccccc3)c(CCNC(C)=O)c2c1,–,–,Ki [4]: 31.6 nM
COc1ccc2c(c1)c(CCNC(C)=O)c(-c1cccc3ccccc13)n2C,12 nM and 33.9 nM and 12.9 nM,0.309 nM and 0.575 nM and 0.126 nM,Ki [5]: 40.7 nM and 97.7 nM and 33.1 nM; Ki [6]: 0.302 nM and 0.38 nM and 0.288 nM
COc1ccc2[nH]c(Sc3ccccc3)c(CCNC(C)=O)c2c1,0.977 nM,0.0631 nM,–
COc1ccc2[nH]c(-c3cccc4[nH]ccc34)c(CCNC(C)=O)c2c1,14.8 nM,0.295 nM,–
CC(=O)NCCc1c(-c2cccc(O)c2)oc2ccc3c(c12)CCCO3,–,–,Ki [7]: 0.87 nM; Ki [8]: 0.21 nM

# Further lines, with some results ahead:
Ki [2],Ki [3],Compound,also measured
15.5 nM,0.191 nM,COc1ccc2[nH]c(-c3cccc4ccccc34)c(CCNC(C)=O)c2c1,–
16.2 nM,5.01 nM,COc1ccc2[nH]c(-c3ccc(-c4ccccc4)cc3)c(CCNC(C)=O)c2c1,–
0.0219 nM,0.038 nM,COc1ccc2[nH]c(-c3ccccc3)c(CCNC(C)=O)c2c1,–
0.17 nM,0.0603 nM,COc1ccc2[nH]c(-c3cccnc3)c(CCNC(C)=O)c2c1,–
11.5 nM,2.95 nM,COc1ccc2[nH]c(Oc3ccccc3)c(CCNC(C)=O)c2c1,–
36.3 nM,1.1 nM,COc1ccc2[nH]c(-c3ccc4ccccc4c3)c(CCNC(C)=O)c2c1,–
14.8 nM,2.69 nM,COc1ccc2[nH]c(-c3cccc4ncccc34)c(CCNC(C)=O)c2c1,–
